Measured values taken from PMC9940101, “Elucidation of the (R)-enantiospecific benzylisoquinoline alkaloid biosynthetic pathways in sacred lotus (Nelumbo nucifera)” (Scientific Reports, 2023).

Legend:
NnOMT1 = target: T1, NnOMT1 (Nelumbo nucifera, UniProt A0A3G1RSF0); experiment: substrate conversion by LC-MS/MS; type: biochemical; conditions: 100 µM substrate, 200 µM SAM, pH 7.5, 30 °C; 6-O-methylation
T1 construct: gene 6OMT

NnOMT7 = experiment: LC-MS/MS product quantification, Michaelis-Menten fit; type: biochemical, Nelumbo nucifera; conditions: 400 µM SAM, 100 mM Tris-HCl pH 7.5, 30 °C, 5 min

T1 sequence (A0A3G1RSF0 entry or part of it): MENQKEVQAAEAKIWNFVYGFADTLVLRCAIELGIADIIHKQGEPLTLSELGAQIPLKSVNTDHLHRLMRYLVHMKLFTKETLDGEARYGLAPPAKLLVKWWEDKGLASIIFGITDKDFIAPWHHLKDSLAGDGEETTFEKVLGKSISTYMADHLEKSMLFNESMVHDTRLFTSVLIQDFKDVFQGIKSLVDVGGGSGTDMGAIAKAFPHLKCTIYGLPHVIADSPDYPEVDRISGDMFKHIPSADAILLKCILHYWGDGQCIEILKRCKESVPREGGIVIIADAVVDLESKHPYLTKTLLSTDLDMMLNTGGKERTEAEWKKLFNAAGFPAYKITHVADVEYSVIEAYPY

Km (NnOMT7; 7-O-methylation) [µM] | SMILES | substrate conversion by LC-MS/MS (NnOMT1) | Km (NnOMT7; 6-O-methylation) [µM]
 | Oc1ccc(CC2NCCc3cc(O)c(O)cc32)cc1 (racemic) [(R,S)-norcoclaurine] | NnOMT1 activity with racemic norcoclaurine was higher compared with (S)-norcoclaurine | 143 ± 30
48 ± 4 | COc1cc2c(cc1O)[C@H](Cc1ccc(O)cc1)N(C)CC2 [(S)-N-methylcoclaurine] |  | 
 | Oc1ccc(C[C@@H]2NCCc3cc(O)c(O)cc32)cc1 [(S)-norcoclaurine] | NnOMT1 activity with racemic norcoclaurine was higher compared with (S)-norcoclaurine | 
